What was measured:
[1] = test system: metaphase II oocytes; test: FF-MAS as adjunct to a standard FSH based IVF treatment (GnRH analog Synarel down regulation, ICSI); assay type: cell-based, human
Excerpt: (§1) The patient underwent down regulation with an GnRH analog, i.e., Synarel (nasal spray, two puffs daily), for at least 14 days (starting in the luteal phase of the previous cycle or Day 1 or 2 in the follicular phase of the current cycle) and ovarian stimulation with recombinant FSH with an average daily dose of 225 IU. At least 3 follicles of 17 mm or more were present at the time of administering hCG, i.e. Profase (10.000 IU, one shot). Follicles were aspirated and metaphase II oocytes were cultured in oocyte culture system containing standard in vitro fertilization (IVF) media (IVF 20 (which is available from Scandinavian IVF Science AB, Gothenburg, Sweden)) supplemented with human serum albumin (0.8%) and FF-MAS (5 μM). All oocytes were cultured under normal conditions at 37° C. in the incubator. Each oocyte was cultured in one well in a four-chamber culture dish as culture media system. […] Preembryos were evaluated for cleavage stage and fragmentation/morphology at 1, 2 and 3 days post ICSI. […] The patient received an estrogen, i.e., Estrofem (6 mg/daily), and a progesterone, i.e., Utrogestan (600 mg/daily, micronized, vaginal suppository), daily to render the endometrium lining the patient uterus responsive and ready for allowing implantation of the transferred eggs. […]

[2] = test system: metaphase II oocytes; test: FF-MAS as adjunct to a standard FSH based IVF treatment (GnRH antagonist Cetrorelix protocol, ICSI); assay type: cell-based, human
Experimental: as §1, with “regulation” for “regulation with an GnRH analog, i.e., Synarel (nasal spray, two puffs daily), for at least 14 days (starting in the luteal phase of the previous cycle or Day 1 or 2 in the follicular phase of the current cycle) and ovarian stimulation”, “225 IU starting on Day 1 or 2 of the current cycle and used a GnRH antagonist, i.e., Cetrorelix (1 mg daily, subcutaneously, one shot), in the current cycle.” for “225 IU.”, “hCG, i.e., Profasi” for “hCG, i.e. Profase”, “progesterone, i.e.” for “progesterone, i.e.,”, “suppository),” for “suppository), daily”

[3] = FF-MAS 5 μM, 0.8% HSA in IVF 20 medium, 4 hours before and 20 hours after ICSI

Measured: results of the IVF procedure compared with the known procedures

CC(C)=CCC[C@@H](C)[C@H]1CC=C2C3=C(CC[C@@]21C)[C@@]1(C)CC[C@H](O)C(C)(C)[C@@H]1CC3 [FF-MAS, 4,4-dimethyl-5α-cholesta-8,14,24-triene-3β-ol]
better results: [1]; [3] | [1]; FF-MAS 20 μM, otherwise procedure of Example 4 | [2]; [3] | [2]; FF-MAS 20 μM, otherwise procedure of Example 3

Source: US6585982B1, “Treatment of infertility” (NNA/S, priority 1999, dated 2003)
